Measurements published in PubChem BioAssay (NCI).
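Growth conditions: 96-well plates. Treatment: test compound, 48 hours, 5 concentrations. Analysis: linear interpolation between bracketing concentrations; unreached endpoints set to highest concentration. TGI denotes the concentration required for complete inhibition of growth.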

Tests used:
Test in all cases: NCI anticancer screen, dose series, 48 h
NCI-H522 lung = test system: NCI-H522 lung
CCRF-CEM leukemia = test system: CCRF-CEM leukemia
DU-145 prostate = test system: DU-145 prostate
TK-10 renal = test system: TK-10 renal
A498 renal = test system: A498 renal
UO-31 renal = test system: UO-31 renal
HS 578T breast = test system: HS 578T breast
K-562 leukemia = test system: K-562 leukemia
SNB-75 CNS = test system: SNB-75 CNS
NCI-H23 lung = test system: NCI-H23 lung
OVCAR-8 ovarian = test system: OVCAR-8 ovarian
SF-539 CNS = test system: SF-539 CNS
NCI-H460 lung = test system: NCI-H460 lung
786-0 renal = test system: 786-0 renal
MCF7 breast = test system: MCF7 breast
NCI-H226 lung = test system: NCI-H226 lung
NCI/ADR-RES ovarian = test system: NCI/ADR-RES ovarian
SN12C renal = test system: SN12C renal
MOLT-4 leukemia = test system: MOLT-4 leukemia
T-47D breast = test system: T-47D breast
OVCAR-5 ovarian = test system: OVCAR-5 ovarian
SF-268 CNS = test system: SF-268 CNS
RXF 393 renal = test system: RXF 393 renal
ACHN renal = test system: ACHN renal
MDA-N = test system: MDA-N
HL-60(TB) leukemia = test system: HL-60(TB) leukemia
U251 CNS = test system: U251 CNS
HT29 colon = test system: HT29 colon
COLO 205 colon = test system: COLO 205 colon
A549 NSCLC = test system: A549 NSCLC
HCC-2998 colon = test system: HCC-2998 colon
BT-549 breast = test system: BT-549 breast
SW-620 colon = test system: SW-620 colon
SK-MEL-28 melanoma = test system: SK-MEL-28 melanoma
IGROV1 ovarian = test system: IGROV1 ovarian
MDA-MB-435 = test system: MDA-MB-435
SF-295 CNS = test system: SF-295 CNS
HCT-116 colon = test system: HCT-116 colon
KM12 colon = test system: KM12 colon
SK-MEL-2 melanoma = test system: SK-MEL-2 melanoma
HCT-15 colon = test system: HCT-15 colon
HOP-62 NSCLC = test system: HOP-62 NSCLC
UACC-257 melanoma = test system: UACC-257 melanoma
UACC-62 melanoma = test system: UACC-62 melanoma
HOP-92 NSCLC = test system: HOP-92 NSCLC
SK-OV-3 ovarian = test system: SK-OV-3 ovarian
CAKI-1 renal = test system: CAKI-1 renal
EKVX NSCLC = test system: EKVX NSCLC
LOX IMVI melanoma = test system: LOX IMVI melanoma
SNB-19 CNS = test system: SNB-19 CNS
MDA-MB-231 breast = test system: MDA-MB-231 breast
PC-3 prostate = test system: PC-3 prostate
M14 melanoma = test system: M14 melanoma
SK-MEL-5 melanoma = test system: SK-MEL-5 melanoma
MALME-3M melanoma = test system: MALME-3M melanoma
OVCAR-3 ovarian = test system: OVCAR-3 ovarian

For `COc1cc(OC)c2c(=O)c(OC)c(-c3ccc4c(c3)OCO4)oc2c1OC`, the TGI (NCI-H522 lung) was over 100 µM, the TGI (CCRF-CEM leukemia) was 83.5 µM and the TGI (DU-145 prostate) was over 100 µM. For the same molecule, the TGI (TK-10 renal) was over 100 µM, the TGI (A498 renal) was over 100 µM and the TGI (UO-31 renal) was over 100 µM. The TGI (HS 578T breast) was over 100 µM, the TGI (K-562 leukemia) was over 100 µM and the TGI (SNB-75 CNS) was over 100 µM. It also gave a TGI (NCI-H23 lung) of over 100 µM, a TGI (OVCAR-8 ovarian) of over 100 µM and a TGI (SF-539 CNS) of over 100 µM. The TGI (NCI-H460 lung) was over 100 µM, the TGI (786-0 renal) was over 100 µM and the TGI (MCF7 breast) was over 100 µM. The TGI (NCI-H226 lung) was over 100 µM, the TGI (NCI/ADR-RES ovarian) was over 100 µM and the TGI (SN12C renal) was over 100 µM. For the same molecule, the TGI (MOLT-4 leukemia) was over 100 µM, the TGI (T-47D breast) was over 100 µM and the TGI (OVCAR-5 ovarian) was over 100 µM. It also gave a TGI (SF-268 CNS) of over 100 µM, a TGI (RXF 393 renal) of over 100 µM and a TGI (ACHN renal) of over 100 µM. The TGI (MDA-N) was over 100 µM, the TGI (HL-60(TB) leukemia) was 40.4 µM and the TGI (U251 CNS) was over 100 µM. For the same molecule, the TGI (HT29 colon) was over 100 µM, the TGI (COLO 205 colon) was over 100 µM and the TGI (A549 NSCLC) was over 100 µM. It also gave a TGI (HCC-2998 colon) of over 100 µM, a TGI (BT-549 breast) of over 100 µM and a TGI (SW-620 colon) of over 100 µM. It also gave a TGI (SK-MEL-28 melanoma) of over 100 µM, a TGI (IGROV1 ovarian) of over 100 µM and a TGI (MDA-MB-435) of over 100 µM. It also gave a TGI (SF-295 CNS) of over 100 µM, a TGI (HCT-116 colon) of over 100 µM and a TGI (KM12 colon) of over 100 µM. For the same molecule, the TGI (SK-MEL-2 melanoma) was over 100 µM, the TGI (HCT-15 colon) was over 100 µM and the TGI (HOP-62 NSCLC) was over 100 µM. The TGI (UACC-257 melanoma) was over 100 µM, the TGI (UACC-62 melanoma) was over 100 µM and the TGI (HOP-92 NSCLC) was 90.9 µM. It also gave a TGI (SK-OV-3 ovarian) of over 100 µM, a TGI (CAKI-1 renal) of over 100 µM and a TGI (EKVX NSCLC) of over 100 µM. It also gave a TGI (LOX IMVI melanoma) of over 100 µM, a TGI (SNB-19 CNS) of over 100 µM and a TGI (MDA-MB-231 breast) of over 100 µM. For the same molecule, the TGI (PC-3 prostate) was over 100 µM, the TGI (M14 melanoma) was over 100 µM and the TGI (SK-MEL-5 melanoma) was 89.8 µM. It also gave a TGI (MALME-3M melanoma) of over 100 µM and a TGI (OVCAR-3 ovarian) of over 100 µM.
